# Target: Hydroxycarboxylic acid receptor 2 (Homo sapiens, UniProt Q8TDS4)
# Assay: Agonist activity at human HM74A transfected in CHO-K1 cells for 4 hrs by [35S]-GTPgammaS binding assay
# Type: functional, cell-based
# Hydroxycarboxylic acid receptor 2, sequence (Q8TDS4 whole entry): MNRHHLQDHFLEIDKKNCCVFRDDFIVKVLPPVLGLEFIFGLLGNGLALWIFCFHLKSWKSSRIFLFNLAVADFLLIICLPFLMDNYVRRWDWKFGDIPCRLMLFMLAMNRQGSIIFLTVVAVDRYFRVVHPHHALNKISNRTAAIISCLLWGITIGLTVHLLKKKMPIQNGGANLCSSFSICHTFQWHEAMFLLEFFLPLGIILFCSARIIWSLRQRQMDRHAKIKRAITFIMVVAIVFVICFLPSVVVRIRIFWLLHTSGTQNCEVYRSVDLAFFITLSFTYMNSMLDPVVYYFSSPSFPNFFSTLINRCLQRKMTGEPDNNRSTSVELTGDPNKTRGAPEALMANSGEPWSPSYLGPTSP
EC50 [µM],Efficacy [%],Structure (SMILES)
< 12.6,> 30,O=c1[nH]c(=O)n(CCC2CC2)c2nc(Cl)[nH]c12
< 12.6,> 30,O=c1[nH]c(=O)n(CC(F)(F)F)c2nc(Cl)[nH]c12
< 12.6,> 30,CCn1c(=O)c2[nH]c(Cl)nc2n(CC(F)(F)F)c1=O
< 12.6,> 30,CCCCCn1c(=O)n(C)c(=O)c2[nH]c(Br)nc21
< 12.6,> 30,O=c1[nH]c(=O)n(CCC2CCCC2)c2nc(Cl)[nH]c12
< 12.6,> 30,CCCCn1c(=O)n(C)c(=O)c2[nH]c(C#N)nc21
< 12.6,> 30,O=c1[nH]c(=O)n(CCCCF)c2nc(Cl)[nH]c12
< 12.6,> 30,C=CCCn1c(=O)[nH]c(=O)c2[nH]c(Cl)nc21
< 12.6,> 30,C=CCCCn1c(=O)[nH]c(=O)c2[nH]c(Cl)nc21
< 12.6,> 30,CCCCCCn1c(=O)[nH]c(=O)c2[nH]c(Cl)nc21
< 12.6,> 30,CCCn1c(=O)n(C)c(=O)c2[nH]c(Cl)nc21
< 12.6,> 30,CC(C)CCCCCn1c(=O)[nH]c(=O)c2[nH]c(Cl)nc21
< 12.6,> 30,N#CCCCn1c(=O)[nH]c(=O)c2[nH]c(Cl)nc21
< 12.6,> 30,CCCCCCCCCCn1c(=O)[nH]c(=O)c2[nH]c(Cl)nc21
< 12.6,> 30,CCCCn1c(=O)n(CC#N)c(=O)c2[nH]c(Cl)nc21
< 12.6,> 30,CC(C)CCCn1c(=O)[nH]c(=O)c2[nH]c(Cl)nc21
< 12.6,> 30,CCCCn1c(=O)n(CC)c(=O)c2[nH]c(Cl)nc21
< 12.6,> 30,O=c1[nH]c(=O)n(CC2CCCCC2)c2nc(Cl)[nH]c12
< 12.6,> 30,O=c1[nH]c(=O)n(CCCCCCF)c2nc(Cl)[nH]c12
< 12.6,> 30,O=c1[nH]c(=O)n(CCCCCF)c2nc(Cl)[nH]c12
< 12.6,> 30,CCCCCCn1c(=O)n(C)c(=O)c2[nH]c(Cl)nc21
< 12.6,> 30,CCCCCn1c(=O)n(C)c(=O)c2[nH]c(C#N)nc21
< 12.6,> 30,CCCCn1c(=O)c2[nH]c(I)nc2n(CCCC)c1=O
< 12.6,> 30,O=c1c2[nH]c(Cl)nc2n(CC(F)(F)F)c(=O)n1CCCC(F)(F)F
< 12.6,> 30,CCCCCn1c(=O)[nH]c(=O)c2[nH]c(Cl)nc21
< 12.6,> 30,N#CCn1c(=O)c2[nH]c(Cl)nc2n(CC#N)c1=O
< 12.6,> 30,CCCn1c(=O)[nH]c(=O)c2[nH]c(Cl)nc21

EC50 [µM],Efficacy [%],Structure (SMILES)
< 12.6,> 30,O=c1[nH]c(=O)n(CCC2CCCCC2)c2nc(Cl)[nH]c12
< 12.6,> 30,O=c1[nH]c(=O)n(CC2CCC2)c2nc(Cl)[nH]c12
< 12.6,> 30,O=c1[nH]c(=O)n(CCC(F)(F)F)c2nc(Cl)[nH]c12
< 12.6,> 30,CCC(C)Cn1c(=O)[nH]c(=O)c2[nH]c(Cl)nc21 (racemic)
< 12.6,> 30,CCCn1c(=O)c2[nH]c(Cl)nc2n(CC(F)(F)F)c1=O
< 12.6,> 30,Cn1c(=O)c2[nH]c(Cl)nc2n(CCCC#N)c1=O
< 12.6,> 30,CCC(C)CCn1c(=O)[nH]c(=O)c2[nH]c(Cl)nc21 (racemic)
< 12.6,> 30,CCCCn1c(=O)c2[nH]c(C#N)nc2n(CCCC)c1=O
< 12.6,> 30,Cn1c(=O)c2[nH]c(Cl)nc2n(CCCC(F)(F)F)c1=O
< 12.6,> 30,CCCCn1c(=O)[nH]c(=O)c2[nH]c(Cl)nc21
< 12.6,> 30,CCCCCn1c(=O)n(C)c(=O)c2[nH]c(Cl)nc21
< 12.6,> 30,N#CCn1c(=O)c2[nH]c(Cl)nc2n(CCC2CC2)c1=O
< 12.6,> 30,O=c1c2[nH]c(Cl)nc2n(CCCC(F)(F)F)c(=O)n1CCCC(F)(F)F
< 12.6,> 30,CC(C)(C#N)CCCCn1c(=O)[nH]c(=O)c2[nH]c(Cl)nc21
< 12.6,> 30,O=c1[nH]c(=O)n(CC2CC2)c2nc(Cl)[nH]c12
< 12.6,> 30,CC(C)CCn1c(=O)[nH]c(=O)c2[nH]c(Cl)nc21
< 12.6,> 30,CCCn1c(=O)n(CC#N)c(=O)c2[nH]c(Cl)nc21
< 12.6,> 30,O=c1[nH]c(=O)n(CCCC2CC2)c2nc(Cl)[nH]c12
< 12.6,> 30,O=c1[nH]c(=O)n(CCCC(F)(F)F)c2nc(Cl)[nH]c12
< 12.6,> 30,N#CCn1c(=O)[nH]c(=O)c2[nH]c(Cl)nc21
< 12.6,> 30,O=c1[nH]c(=O)n(CC2CCCC2)c2nc(Cl)[nH]c12
< 12.6,> 30,O=c1[nH]c(=O)n(CCC2CCC2)c2nc(Cl)[nH]c12
< 12.6,> 30,CCn1c(=O)n(C)c(=O)c2[nH]c(Cl)nc21
< 12.6,> 30,CCCCCCCCn1c(=O)[nH]c(=O)c2[nH]c(Cl)nc21
,> 30,CCCCn1c(=O)n(C)c(=O)c2[nH]c(Cl)nc21
< 12.6,> 30,O=c1[nH]c(=O)n(CCCF)c2nc(Cl)[nH]c12
< 12.6,> 30,CCCC(C)Cn1c(=O)[nH]c(=O)c2[nH]c(Cl)nc21 (racemic)

# Reference: ChEMBL document CHEMBL3727370, “HM74 receptor agonists:xanthine derivatives, corresponding pharmaceutical compositions, treatment methods and processes” (2013)
